From publication doi:10.1101/844506v1 (biorxiv, 2019)

Target: B8CYA8 (β-glucosidase from Halothermothrix orenii) (Halothermothrix orenii, UniProt B8CYA8)
Assay: melting temperature shift
Format: binding
Settings: 0.5 M glucose

Chain of B8CYA8 (β-glucosidase from Halothermothrix orenii) (B8CYA8 1-451): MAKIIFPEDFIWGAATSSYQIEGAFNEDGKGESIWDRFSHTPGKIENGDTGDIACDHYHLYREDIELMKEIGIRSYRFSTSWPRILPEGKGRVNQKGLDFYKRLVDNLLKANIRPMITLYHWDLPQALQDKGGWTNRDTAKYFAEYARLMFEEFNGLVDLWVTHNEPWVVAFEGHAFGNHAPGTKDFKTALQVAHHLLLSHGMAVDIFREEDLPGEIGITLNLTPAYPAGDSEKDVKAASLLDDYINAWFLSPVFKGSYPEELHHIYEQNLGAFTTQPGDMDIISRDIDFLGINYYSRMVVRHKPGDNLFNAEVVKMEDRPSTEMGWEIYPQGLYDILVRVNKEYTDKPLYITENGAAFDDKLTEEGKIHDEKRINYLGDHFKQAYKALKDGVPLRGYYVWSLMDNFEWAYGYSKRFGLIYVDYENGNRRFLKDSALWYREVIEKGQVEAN

- increase in melting temperature: 4-5 °C
SMILES: OC[C@H]1OC(O)[C@H](O)[C@@H](O)[C@@H]1O (stereo partly shown) [glucose]
